Test results as given in ChEMBL document CHEMBL1201862, “PubChem BioAssay data set” (2004).
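Step 1: Grow cells in 96-well plates. Step 2: Expose to compound for 48 hours at 5 concentrations. Step 3: Interpolate endpoints linearly; if unreached, use highest concentration. GI50: concentration for 50% inhibition of growth.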 Activity calls are given as the source filed them. Cut-off read from the data, not from the text of the source: active = GI50 up to about 1.1 µM and inactive = higher.

Tests used:
Test in all cases: NCI tumour cell line growth inhibition, 48 h
[1] = tested on: HOP-62
[2] = tested on: COLO 205
[3] = tested on: UO-31
[4] = tested on: DLD-1
[5] = tested on: SF-295
[6] = tested on: XF498
[7] = tested on: SW-620
[8] = tested on: NCI-H460
[9] = tested on: HCC 2998
[10] = tested on: EKVX
[11] = tested on: KM-20L2
[12] = tested on: SF-268
[13] = tested on: M19-MEL
[14] = tested on: M14
[15] = tested on: CAKI-1
[16] = tested on: RXF 631
[17] = tested on: LXFL 529
[18] = tested on: HOP-18
[19] = tested on: K562
[20] = tested on: OVCAR-4
[21] = tested on: MOLT-4
[22] = tested on: SK-MEL-28
[23] = tested on: HCT-15
[24] = tested on: UACC-257
[25] = tested on: SNB-78
[26] = tested on: OVCAR-8
[27] = tested on: NCI-H522
[28] = tested on: 786-0
[29] = tested on: LOX IMVI
[30] = tested on: SNB-19
[31] = tested on: A549
[32] = tested on: HOP-92
[33] = tested on: HT-29
[34] = tested on: SK-OV-3
[35] = tested on: SF-539
[36] = tested on: IGROV-1
[37] = tested on: U-251
[38] = tested on: ACHN
[39] = tested on: SK-MEL-5
[40] = tested on: TK-10
[41] = tested on: DMS-273
[42] = tested on: A498
[43] = tested on: SN12C
[44] = tested on: OVCAR-5
[45] = tested on: NCI-H226
[46] = tested on: Malme-3M
[47] = tested on: NCI-H23
[48] = tested on: OVCAR-3
[49] = tested on: KM12
[50] = tested on: SNB-75
[51] = tested on: RXF 393
[52] = tested on: UACC-62
[53] = tested on: SK-MEL-2
[54] = tested on: RPMI-8226
[55] = tested on: HL-60
[56] = tested on: DMS-114
[57] = tested on: SR
[58] = tested on: HCT-116
[59] = tested on: CCRF-CEM

COc1ccc(/C(Cl)=C(\C=O)c2ccc(Br)cc2)cc1OC
GI50 [1]: 34.8 µM (inactive) | GI50 [2]: > 100 µM (inactive) | GI50 [3]: > 100 µM (inactive) | GI50 [4]: > 100 µM (inactive) | GI50 [5]: 19.8 µM (inactive) | GI50 [6]: 9.33 µM (inactive) | GI50 [7]: > 100 µM (inactive) | GI50 [8]: > 68.9 µM (inactive) | GI50 [9]: > 100 µM (inactive) | GI50 [10]: > 48.4 µM (inactive) | GI50 [11]: > 100 µM (inactive) | GI50 [12]: 23.2 µM (inactive) | GI50 [13]: > 100 µM (inactive) | GI50 [14]: > 100 µM (inactive) | GI50 [15]: > 100 µM (inactive) | GI50 [16]: > 62.4 µM (inactive) | GI50 [17]: > 100 µM (inactive) | GI50 [18]: 48.4 µM (inactive) | GI50 [19]: > 61 µM (inactive) | GI50 [20]: > 100 µM (inactive) | GI50 [21]: 4.27 µM (inactive) | GI50 [22]: > 100 µM (inactive) | GI50 [23]: 25.1 µM | GI50 [24]: > 100 µM (inactive) | GI50 [25]: 25.4 µM (inactive) | GI50 [26]: 31.9 µM (inactive) | GI50 [27]: 51.8 µM (inactive) | GI50 [28]: 27.7 µM (inactive) | GI50 [29]: 18.3 µM (inactive) | GI50 [30]: 26.3 µM (inactive) | GI50 [31]: 62.5 µM (inactive) | GI50 [32]: 17.7 µM (inactive) | GI50 [33]: > 100 µM (inactive) | GI50 [34]: > 100 µM (inactive) | GI50 [35]: 26.1 µM (inactive) | GI50 [36]: > 100 µM (inactive) | GI50 [37]: 32.8 µM (inactive) | GI50 [38]: > 72.6 µM (inactive) | GI50 [39]: > 100 µM (inactive) | GI50 [40]: > 92.3 µM (inactive) | GI50 [41]: > 100 µM (inactive) | GI50 [42]: 88.9 µM (inactive) | GI50 [43]: > 100 µM (inactive) | GI50 [44]: > 100 µM (inactive) | GI50 [45]: 19.5 µM (inactive) | GI50 [46]: 47.8 µM (inactive) | GI50 [47]: 64.7 µM (inactive) | GI50 [48]: > 100 µM (inactive) | GI50 [49]: > 100 µM (inactive) | GI50 [50]: 2.81 µM (inactive) | GI50 [51]: 20.7 µM (inactive) | GI50 [52]: 33.7 µM (inactive) | GI50 [53]: 16.5 µM (inactive) | GI50 [54]: 3.69 µM (inactive) | GI50 [55]: 17 µM (inactive)

CCOc1ccc2nc(NC(=O)C(=O)C(C#N)CC(C)(C)C=O)sc2c1 (stereo not drawn)
GI50 [1]: > 100 µM (inactive) | GI50 [2]: > 100 µM (inactive) | GI50 [3]: > 100 µM (inactive) | GI50 [4]: > 100 µM (inactive) | GI50 [5]: > 100 µM (inactive) | GI50 [6]: > 100 µM (inactive) | GI50 [56]: 35.6 µM (inactive) | GI50 [8]: > 100 µM (inactive) | GI50 [9]: > 100 µM (inactive) | GI50 [10]: > 100 µM (inactive) | GI50 [11]: > 100 µM (inactive) | GI50 [12]: > 100 µM (inactive) | GI50 [13]: 61.2 µM (inactive) | GI50 [14]: > 100 µM (inactive) | GI50 [15]: > 100 µM (inactive) | GI50 [57]: 21 µM (inactive) | GI50 [16]: > 100 µM (inactive) | GI50 [17]: > 100 µM (inactive) | GI50 [18]: > 100 µM (inactive) | GI50 [19]: 52.7 µM (inactive) | GI50 [20]: > 100 µM (inactive) | GI50 [21]: > 100 µM (inactive) | GI50 [22]: > 100 µM (inactive) | GI50 [23]: 43.9 µM | GI50 [58]: > 100 µM (inactive) | GI50 [24]: > 100 µM (inactive) | GI50 [25]: > 100 µM (inactive) | GI50 [59]: 26.9 µM (inactive) | GI50 [26]: > 100 µM (inactive) | GI50 [27]: 49.9 µM (inactive) | GI50 [28]: > 100 µM (inactive) | GI50 [29]: 44.2 µM (inactive) | GI50 [30]: > 100 µM (inactive) | GI50 [31]: > 100 µM (inactive) | GI50 [32]: > 100 µM (inactive) | GI50 [33]: > 100 µM (inactive) | GI50 [34]: > 100 µM (inactive) | GI50 [35]: 75.7 µM (inactive) | GI50 [36]: > 100 µM (inactive) | GI50 [37]: > 100 µM (inactive) | GI50 [38]: > 100 µM (inactive) | GI50 [39]: > 100 µM (inactive) | GI50 [40]: > 100 µM (inactive) | GI50 [41]: 18.7 µM (inactive) | GI50 [42]: > 100 µM (inactive) | GI50 [43]: > 100 µM (inactive) | GI50 [44]: > 100 µM (inactive) | GI50 [45]: > 100 µM (inactive) | GI50 [46]: > 100 µM (inactive) | GI50 [47]: > 100 µM (inactive) | GI50 [48]: > 100 µM (inactive) | GI50 [49]: > 100 µM (inactive) | GI50 [50]: > 100 µM (inactive) | GI50 [51]: > 100 µM (inactive) | GI50 [52]: > 100 µM (inactive) | GI50 [53]: > 100 µM (inactive) | GI50 [54]: 75.3 µM (inactive) | GI50 [55]: > 100 µM (inactive)
